Reference: article PMC7215373, “Design, Synthesis, and Anticancer Evaluation of Novel Indole Derivatives of Ursolic Acid as Potential Topoisomerase II Inhibitors” (International Journal of Molecular Sciences, 2020)

Columns and labels:
[1] = molecular target: T1, DNA topoisomerase I (Bos taurus, UniProt F1MN93); experiment: Topoisomerase I relaxation assay (supercoiled pBR322); format: biochemical; settings: 100 μM compound; read-out: Topo I Inhibition (%) 100 μM
T1 construct: purchased TaKaRa, Kyoto, Japan
T1 sequence (F1MN93 1-767): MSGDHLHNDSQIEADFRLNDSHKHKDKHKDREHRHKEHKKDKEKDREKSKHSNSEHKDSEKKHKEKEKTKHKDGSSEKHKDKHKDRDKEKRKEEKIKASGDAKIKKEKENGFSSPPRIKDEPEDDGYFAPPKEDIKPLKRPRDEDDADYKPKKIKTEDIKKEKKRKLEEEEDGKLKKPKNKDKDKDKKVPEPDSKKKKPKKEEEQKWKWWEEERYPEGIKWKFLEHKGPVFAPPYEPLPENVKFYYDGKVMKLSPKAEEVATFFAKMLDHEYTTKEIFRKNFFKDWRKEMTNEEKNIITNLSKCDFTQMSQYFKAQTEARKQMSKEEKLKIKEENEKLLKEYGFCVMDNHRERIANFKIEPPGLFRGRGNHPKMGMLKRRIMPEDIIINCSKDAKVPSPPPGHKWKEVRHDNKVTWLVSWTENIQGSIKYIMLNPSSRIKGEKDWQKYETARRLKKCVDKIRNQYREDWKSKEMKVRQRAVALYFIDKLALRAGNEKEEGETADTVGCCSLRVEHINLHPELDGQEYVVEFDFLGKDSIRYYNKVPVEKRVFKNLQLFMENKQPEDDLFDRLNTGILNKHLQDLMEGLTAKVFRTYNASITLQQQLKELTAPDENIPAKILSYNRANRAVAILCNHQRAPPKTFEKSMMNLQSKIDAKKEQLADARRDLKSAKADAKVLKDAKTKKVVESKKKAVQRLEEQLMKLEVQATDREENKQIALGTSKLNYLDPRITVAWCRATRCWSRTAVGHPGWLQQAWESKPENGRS
Procedure, shortened: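 Relaxation of supercoiled pBR322 by topoisomerase I, 30 min at 37 °C; stopped with SDS dye. Products resolved on 1% agarose in 1× TAE for 1 h, ethidium bromide-stained, with relaxed vs supercoiled DNA visualized under UV.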

[2] = test system: SMMC-7721 cells; experiment: Annexin V-FITC/PI staining apoptosis assay by flow cytometry; format: cell-based, human; settings: 48 h, control 4.41%
Method: To further investigate the role of apoptosis in the antitumor activity of compound 5f, SMMC-7721 cells were treated with different concentrations of compound 5f (0, 0.3, 0.6, and 1.2 μM) for 48 h. Then the treated cells were stained with Annexin V-FITC/PI followed by flow cytometry analysis.
The extent of apoptosis was quantitatively measured using Annexin V-FITC/PI dual staining assay. SMMC-7721 cells were seeded into a six-well plate at 5 × 10^5 cells per well in 10% fetal calf serum (FBS)-DMEM into six-well plates and treated with different concentrations of the indicated compound 5f for 48 h. The cells were detached with 0.25% trypsin, washed with ice-cold PBS for twice and then resuspended in 1 × Binding buffer (0.1 M Hepes/NaOH (pH 7.4), 1.4 M NaCl, 25 mM CaCl2). The cells were stained with 5 μL of Annexin V-FITC and 5 μL of PI ([…]) to each tube. The cells were gently vortexed and incubated in the dark at room temperature for 15 min and then kept at 4 °C. The samples were analyzed by a flow cytometer (Becton-Dickinson FACSCalibur, Franklin Lakes, NJ, USA), and data were analyzed using the FlowJo software (Becton-Dickinson Biosciences, Franklin Lakes, NJ, USA).

[3] = test system: SMMC-7721 cells; experiment: JC-1 mitochondrial membrane potential assay; format: cell-based, human; settings: 24 h, control 1.29%
Method: It has been widely believed that intracellular ROS accumulation could decrease mitochondrial membrane potential (ΔΨm), which is a characteristic phenomenon of early apoptosis. To investigate the correlation between ΔΨm and apoptosis induced by compound 5f, the measurement of cells with decreased ΔΨm were carried out by JC-1 assay kit on the instructions of the manual.
The JC-1 mitochondrial membrane potential assay kit (Keygene Biotech., Nanjing, China) was employed to measure mitochondrial depolarization in SMMC-7721 cells. The fluorescence probe JC-1 was used to detect the change of mitochondrial membrane potential. Briefly, cells cultured in six-well plates after indicated treatments by compound 5f were incubated with an equal volume of JC-1 staining solution (5 μg/mL) at 37 °C for 20 min and rinsed twice with PBS. Mitochondrial membrane potentials were monitored by determining the relative amounts of dual emissions from mitochondrial JC-1 monomers or aggregates using flow cytometry (Becton-Dickinson FACSCalibur, Franklin Lakes, NJ, USA). Mitochondrial membrane depolarization is indicated by an increase in the percentage of cells with low ΔΨm (green fluorescence, lower right quadrant) compared with cells with high ΔΨm (red fluorescence, upper right quadrant).

[4] = test system: SMMC-7721 cells; experiment: AO/EB double staining assay; format: cell-based, human; settings: 0.3, 0.6 and 1.2 μM, 48 h
Description: Apoptosis induced by compound 5f was further evaluated using acridine orange / ethidium bromide (AO/EB) double staining. AO, as a vital dye showing green fluorescence, can pass through cell membrane of living or dead cells, while EB only stains apoptotic or necrotic cells that have lost their integrity and appear red fluorescence. Therefore, the normal cells will be stained only by AO with bright green while apoptotic cells will be stained by AO and EB with red-orange [26, 27].
SMMC-7721 cells were seeded into six-well plates and incubated at 37 °C with 5% CO2 for 24 h. Then, the cells were exposed to different concentrations of compound 5f (0, 0.3, 0.6, and 1.2 μM) for 48 h. After that, 10 μL of each fluorescent dye cantaining AO and EB (10 μg/mL) were added to each well in equal volumes respectively and incubated for 5 min in the dark. The cells were visualized through an inverted fluorescence microscope (Olympus 1X71 Inverted System Microscope, Olympus, Tokyo, Japan).

In the case of `Cc1ccc2[nH]c3c(c2c1)C[C@@]1(C)C(CC[C@]2(C)C1CC=C1C4[C@@H](C)[C@H](C)CC[C@]4(C(=O)NCCCN4CCN(C)CC4)CC[C@]12C)C3(C)C` (some centres unmarked) [5f, N-(3-(4-Methylpiperazin-1-yl)propyl)-5′-methyl-1′H-ursa-2,12-dieno[3,2-b]indol-28-carboxamide], the inhibition at 100 µM [1] is reported as 0%, the “percentage of early and late apoptotic cells” value ([2]; 0.3 μM) is reported as 9.13% and the “percentage of early and late apoptotic cells” value ([2]; 0.6 μM) is reported as 21.36%. The “percentage of early and late apoptotic cells” value ([2]; 1.2 μM) was 30.33%, the “percentage of cells with low ΔΨm” value ([3]; 0.3 μM) was 7.43% and the “percentage of cells with low ΔΨm” value ([3]; 0.6 μM) was 16.28%. For the same compound, the “percentage of cells with low ΔΨm” value ([3]; 1.2 μM) was 32.34% and the “apoptosis by AO/EB staining (fluorescence microscopy)” value [4] was “induced apoptosis”.
